# Laboratory results published in ChEMBL document CHEMBL3399933, “A combination of in silico and SAR studies to identify binding hot spots of Bcl-xL inhibitors” (Bioorg Med Chem, 2015).
# Target: Bcl-2-like protein 1 (Homo sapiens, UniProt Q07817)
# Test: Inhibition of GST-tagged Bcl-xL (unknown origin) measured after 1 hr incubation by fluorescence polarization assay
# Sequence of Bcl-2-like protein 1 (Q07817 whole entry): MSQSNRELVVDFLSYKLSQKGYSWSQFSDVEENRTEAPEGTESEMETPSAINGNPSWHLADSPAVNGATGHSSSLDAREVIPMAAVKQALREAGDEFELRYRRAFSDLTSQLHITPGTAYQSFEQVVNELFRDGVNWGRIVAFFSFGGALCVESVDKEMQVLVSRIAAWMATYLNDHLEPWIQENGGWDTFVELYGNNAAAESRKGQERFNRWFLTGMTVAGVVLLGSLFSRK
Structure (SMILES),IC50,Ki
CCCN(C(=O)N[C@@H](CSCc1ccc(Br)cc1)C(=O)O)C(=O)c1cccc(C#Cc2ccc(F)cc2F)c1,13000 nM,
O=C(O)c1ccccc1C(=O)c1ccc(Sc2ccc(Cl)cc2)c([N+](=O)[O-])c1,,500 nM
CC(C)C(C(=O)O)N1C(=O)/C(=C/c2ccc(Br)cc2)SC1=S (centres undefined),,2400 nM
CN(C)CC[C@H](CSc1ccccc1)Nc1ccc(S(=O)(=O)NC(=O)c2ccc(N3CCN(Cc4cccc(-c5ccccc5)c4)CC3)cc2)cc1[N+](=O)[O-],11 nM,
O=C(O)c1cccc(-c2ccc3c(c2)/C(=N/Nc2nc4ccccc4s2)CCC3)n1,21 nM,
Cc1c(C(=O)O)c(-c2cccc(N3CCN(c4ccc(NS(=O)(=O)c5ccc(NC(CCN(C)C)CSc6ccccc6)c([N+](=O)[O-])c5)cc4)CC3)c2)c(-c2ccc(Cl)cc2)n1C (centres undefined),6 nM,
Cc1cc2c(C(C)C)c(O)c(O)c(C=O)c2c(O)c1-c1c(C)cc2c(C(C)C)c(O)c(O)c(C=O)c2c1O [GOSSYPOL],,1000 nM
CCCN(C(=O)N[C@@H](CSCC(C)C)C(=O)O)C(=O)c1cccc(C#Cc2ccc(F)cc2F)c1,22000 nM,
CN(C)CC[C@H](CSc1ccccc1)Nc1ccc(S(=O)(=O)Nc2ncnc3cc(N4CCN(Cc5ccccc5-c5ccc(Cl)cc5)CC4)ccc23)cc1[N+](=O)[O-],3 nM,
